The values that follow come from ChEMBL document CHEMBL1201862, “PubChem BioAssay data set” (2004).

The term Ki denotes a dissociation constant, usually derived from enzyme kinetics or from competition with a known ligand. What is called IC50 is the concentration that gives 50% inhibition. By EC50 is commonly meant the concentration at which the effect is half-maximal.

Calls of active or inactive are those of the source.

The target in assay [1] is Cyclin-dependent kinase 2 (Homo sapiens, UniProt P24941). The format is functional.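 Also: CDK2 measured as one member of a broad kinome profiling panel.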
Assay [2] concerns the target Receptor-type tyrosine-protein kinase FLT3 (Homo sapiens, UniProt P36888). The format is functional.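 Also: FLT3 was tested as one member of a kinome-wide kinase panel.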
Assay [3] addresses Dual specificity tyrosine-phosphorylation-regulated kinase 1B (Homo sapiens, UniProt Q9Y463). The experiment in a line: Navigating the Kinome. Panel member name: DYRK1B. In kind it is functional.
Assay [4] addresses Proto-oncogene tyrosine-protein kinase Src (Homo sapiens, UniProt P12931). The format is functional.
Assay [5] has as its target Tyrosine-protein kinase ITK/TSK (Homo sapiens, UniProt Q08881). In kind it is functional.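 Also: affinity for ITK measured as one member of a broad kinase panel profiling binding across the kinome.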
The target of assay [6] is Interleukin-1 receptor-associated kinase 4 (Homo sapiens, UniProt Q9NWZ3). The format is functional.
For assay [7], the target named is Dual specificity protein kinase CLK2 (Homo sapiens, UniProt P49760). In kind it is functional.
The target of assay [8] is 3-phosphoinositide-dependent protein kinase 1 (Homo sapiens, UniProt O15530). The format is functional.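 Also: value comes from the Navigating the Kinome panel, PDPK1 member.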
3-phosphoinositide-dependent protein kinase 1, sequence (O15530 whole entry): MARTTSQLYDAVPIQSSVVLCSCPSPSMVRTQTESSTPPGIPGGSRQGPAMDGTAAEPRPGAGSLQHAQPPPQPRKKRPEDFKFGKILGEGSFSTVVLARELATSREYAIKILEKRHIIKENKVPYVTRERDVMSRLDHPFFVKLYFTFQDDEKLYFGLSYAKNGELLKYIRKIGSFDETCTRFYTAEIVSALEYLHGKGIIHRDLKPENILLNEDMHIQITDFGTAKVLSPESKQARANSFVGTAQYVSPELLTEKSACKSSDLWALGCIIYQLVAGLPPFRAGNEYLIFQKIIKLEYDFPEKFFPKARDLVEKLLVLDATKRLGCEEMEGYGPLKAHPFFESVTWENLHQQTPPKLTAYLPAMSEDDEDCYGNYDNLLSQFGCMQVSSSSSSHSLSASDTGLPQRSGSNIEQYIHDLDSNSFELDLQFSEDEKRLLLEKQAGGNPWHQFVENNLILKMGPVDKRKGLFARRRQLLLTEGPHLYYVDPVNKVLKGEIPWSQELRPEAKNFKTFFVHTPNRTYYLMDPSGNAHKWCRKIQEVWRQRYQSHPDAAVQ
In assay [9] the target is Dual specificity mitogen-activated protein kinase kinase 1 (Homo sapiens, UniProt Q02750). In words: Navigating the Kinome. Panel member name: MAP2K1. In kind it is functional.
The target in assay [10] is Cell division cycle 7-related protein kinase (Homo sapiens, UniProt O00311). In kind it is functional.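 Also: value obtained from a kinome-wide kinase panel.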
Assay [11] concerns the target Tyrosine-protein kinase Blk (Homo sapiens, UniProt P51451). The format is functional.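 Also: obtained as one member of a kinome-wide kinase assay panel.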
Assay [12] deals with Cyclin-dependent kinase 7 (Homo sapiens, UniProt P50613). In kind it is functional.
Assay [13] has as its target Serine/threonine-protein kinase D3 (Homo sapiens, UniProt O94806). In kind it is functional.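 Also: determined within a kinase panel screen, with PRKCN as the panel member.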
Assay [14] has as its target MAP kinase-activated protein kinase 5 (Homo sapiens, UniProt Q8IW41). In kind it is functional.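 Also: measured as one member of a kinome panel.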
Assay [15] has as its target 5'-AMP-activated protein kinase catalytic subunit alpha-1 (Homo sapiens, UniProt Q13131). The format is functional.
Assay [16] has as its target Rho-associated protein kinase 2 (Homo sapiens, UniProt O75116). The format is functional.
The target in assay [17] is Tyrosine-protein kinase HCK (Homo sapiens, UniProt P08631). In words: Navigating the Kinome. Panel member name: HCK. In kind it is functional.
Assay [18] concerns the target Serine/threonine-protein kinase PLK1 (Homo sapiens, UniProt P53350). The format is functional.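 Also: PLK1 measured as one member of a kinome-wide profiling panel.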
In assay [19] the target is Protein kinase C delta type (Homo sapiens, UniProt Q05655). In kind it is functional.
Protein kinase C delta type, sequence (Q05655 whole entry): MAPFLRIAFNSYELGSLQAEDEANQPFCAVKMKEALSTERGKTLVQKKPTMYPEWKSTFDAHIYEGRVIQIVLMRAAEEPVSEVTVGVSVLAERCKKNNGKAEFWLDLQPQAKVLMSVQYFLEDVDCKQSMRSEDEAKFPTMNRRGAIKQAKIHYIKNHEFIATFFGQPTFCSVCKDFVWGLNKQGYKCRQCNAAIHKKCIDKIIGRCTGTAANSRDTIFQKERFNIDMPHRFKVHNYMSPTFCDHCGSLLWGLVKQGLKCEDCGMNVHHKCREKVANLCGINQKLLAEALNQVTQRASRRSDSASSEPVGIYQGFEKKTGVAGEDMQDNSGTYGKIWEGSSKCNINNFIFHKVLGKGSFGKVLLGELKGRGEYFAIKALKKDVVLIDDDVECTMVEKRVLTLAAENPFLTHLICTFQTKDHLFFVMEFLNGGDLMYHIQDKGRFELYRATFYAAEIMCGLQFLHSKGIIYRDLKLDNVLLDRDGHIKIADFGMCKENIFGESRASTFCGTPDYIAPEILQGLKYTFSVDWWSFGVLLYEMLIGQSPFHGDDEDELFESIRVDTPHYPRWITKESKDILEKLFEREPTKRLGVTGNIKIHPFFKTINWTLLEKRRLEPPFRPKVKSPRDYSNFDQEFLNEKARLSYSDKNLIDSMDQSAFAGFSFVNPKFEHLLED
For the next assay, the target named is Insulin receptor (Homo sapiens, UniProt P06213). The format is functional.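 Also: insulin receptor kinase tested as one member of a kinome-wide kinase panel.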
Assay [20] deals with Mast/stem cell growth factor receptor Kit (Homo sapiens, UniProt P10721). The format is functional.
Assay [21] concerns the target MAP kinase-activated protein kinase 2 (Homo sapiens, UniProt P49137). In kind it is functional.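 Also: measured as one member of a kinome-wide kinase panel.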
The target of assay [22] is Tyrosine-protein kinase FRK (Homo sapiens, UniProt P42685). The format is functional.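 Also: FRK tested as one member of a kinome panel.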
In assay [23] the target is Glycogen synthase kinase-3 beta (Homo sapiens, UniProt P49841). In kind it is functional.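 Also: value comes from a broad kinome profiling panel, with GSK3B as the panel member.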
Glycogen synthase kinase-3 beta, sequence (P49841 whole entry): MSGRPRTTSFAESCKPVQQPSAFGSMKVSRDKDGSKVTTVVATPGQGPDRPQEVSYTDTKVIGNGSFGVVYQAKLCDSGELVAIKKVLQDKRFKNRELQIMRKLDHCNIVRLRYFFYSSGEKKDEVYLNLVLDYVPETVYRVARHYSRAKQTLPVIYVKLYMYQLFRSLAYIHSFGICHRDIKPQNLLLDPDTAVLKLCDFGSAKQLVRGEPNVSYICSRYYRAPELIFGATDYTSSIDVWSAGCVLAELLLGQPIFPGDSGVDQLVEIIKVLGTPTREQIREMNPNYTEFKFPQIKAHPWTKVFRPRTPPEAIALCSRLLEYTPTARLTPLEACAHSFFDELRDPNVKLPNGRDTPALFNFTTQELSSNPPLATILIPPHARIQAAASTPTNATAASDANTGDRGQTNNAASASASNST
Assay [24] has as its target Macrophage colony-stimulating factor 1 receptor (Homo sapiens, UniProt P07333). In kind it is functional.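 Also: value comes from the Navigating the Kinome screening panel, CSF1R member.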
Assay [25] deals with Homeodomain-interacting protein kinase 2 (Homo sapiens, UniProt Q9H2X6). In kind it is functional.
In a further assay the target is Activated CDC42 kinase 1 (Homo sapiens, UniProt Q07912). The experiment in a line: Navigating the Kinome. Panel member name: ACK1. In kind it is functional.
Assay [26] has as its target Tyrosine-protein kinase Fyn (Homo sapiens, UniProt P06241). In kind it is functional.
Assay [27] addresses MAP/microtubule affinity-regulating kinase 4 (Homo sapiens, UniProt Q96L34). The experiment in a line: Navigating the Kinome. Panel member name: MARK4. The format is functional.
The target in assay [28] is Ribosomal protein S6 kinase beta-1 (Homo sapiens, UniProt P23443). The format is functional.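 Also: measured as one member of a kinome-wide profiling panel.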
Assay [29] has as its target Serine/threonine-protein kinase MRCK alpha (Homo sapiens, UniProt Q5VT25). In kind it is functional.
For assay [30], the target named is Rho-associated protein kinase 1 (Homo sapiens, UniProt Q13464). The format is functional.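 Also: measured within a broad kinome-wide panel profiling many kinases.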
Rho-associated protein kinase 1, sequence (Q13464 whole entry): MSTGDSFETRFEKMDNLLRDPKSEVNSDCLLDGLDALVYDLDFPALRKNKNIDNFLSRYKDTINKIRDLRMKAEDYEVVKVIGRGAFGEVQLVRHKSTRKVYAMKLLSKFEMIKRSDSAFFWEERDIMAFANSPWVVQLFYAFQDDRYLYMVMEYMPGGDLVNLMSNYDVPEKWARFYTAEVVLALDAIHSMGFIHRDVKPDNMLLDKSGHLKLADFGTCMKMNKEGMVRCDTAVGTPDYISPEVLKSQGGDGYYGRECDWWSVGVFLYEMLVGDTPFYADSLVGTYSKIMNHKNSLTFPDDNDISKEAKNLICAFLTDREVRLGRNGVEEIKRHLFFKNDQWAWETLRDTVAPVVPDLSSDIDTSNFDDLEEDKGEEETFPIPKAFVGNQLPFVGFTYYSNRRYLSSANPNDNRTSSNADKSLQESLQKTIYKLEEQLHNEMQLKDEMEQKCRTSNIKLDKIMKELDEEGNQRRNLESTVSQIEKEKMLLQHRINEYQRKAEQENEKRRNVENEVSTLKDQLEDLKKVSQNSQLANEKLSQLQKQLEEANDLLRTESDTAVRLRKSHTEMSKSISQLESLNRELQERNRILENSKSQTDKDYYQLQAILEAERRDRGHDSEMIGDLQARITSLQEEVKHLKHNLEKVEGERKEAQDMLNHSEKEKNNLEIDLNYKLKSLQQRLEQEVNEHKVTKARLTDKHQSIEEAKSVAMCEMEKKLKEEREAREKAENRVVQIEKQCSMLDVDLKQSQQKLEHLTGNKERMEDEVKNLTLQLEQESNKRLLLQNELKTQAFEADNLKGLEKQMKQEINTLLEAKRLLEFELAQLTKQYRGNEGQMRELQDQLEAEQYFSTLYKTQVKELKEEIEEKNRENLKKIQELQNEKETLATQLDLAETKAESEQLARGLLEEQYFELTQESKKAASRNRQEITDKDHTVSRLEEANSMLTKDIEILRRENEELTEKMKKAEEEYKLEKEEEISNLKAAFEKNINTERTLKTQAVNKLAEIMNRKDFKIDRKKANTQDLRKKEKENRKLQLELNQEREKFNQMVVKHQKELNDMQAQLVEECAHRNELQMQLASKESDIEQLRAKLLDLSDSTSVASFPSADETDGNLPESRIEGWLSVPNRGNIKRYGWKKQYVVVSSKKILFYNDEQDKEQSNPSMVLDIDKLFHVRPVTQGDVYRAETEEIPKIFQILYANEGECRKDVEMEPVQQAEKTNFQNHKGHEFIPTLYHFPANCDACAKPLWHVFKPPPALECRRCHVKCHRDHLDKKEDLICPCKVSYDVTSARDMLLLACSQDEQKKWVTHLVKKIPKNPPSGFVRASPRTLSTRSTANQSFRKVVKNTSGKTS
In assay [31] the target is Mitogen-activated protein kinase 10 (Homo sapiens, UniProt P53779). The experiment in a line: Navigating the Kinome. Panel member name: MAPK10. In kind it is functional.
Mitogen-activated protein kinase 10, sequence (P53779 whole entry, canonical isoform): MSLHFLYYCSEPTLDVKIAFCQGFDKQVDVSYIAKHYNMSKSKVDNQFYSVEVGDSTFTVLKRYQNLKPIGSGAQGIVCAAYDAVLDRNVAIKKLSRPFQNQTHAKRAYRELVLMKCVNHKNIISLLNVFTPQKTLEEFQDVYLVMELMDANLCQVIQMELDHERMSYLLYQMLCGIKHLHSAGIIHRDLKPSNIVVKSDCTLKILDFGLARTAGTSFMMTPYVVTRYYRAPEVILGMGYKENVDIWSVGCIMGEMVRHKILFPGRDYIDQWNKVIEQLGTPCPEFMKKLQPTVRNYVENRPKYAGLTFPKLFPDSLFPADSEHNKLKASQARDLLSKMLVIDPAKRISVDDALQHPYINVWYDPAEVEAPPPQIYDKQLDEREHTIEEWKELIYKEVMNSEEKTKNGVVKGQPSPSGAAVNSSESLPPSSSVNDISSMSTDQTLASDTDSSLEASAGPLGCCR
In assay [32] the target is Casein kinase I isoform alpha (Homo sapiens, UniProt P48729). The format is functional.
Assay [33] concerns the target Maternal embryonic leucine zipper kinase (Homo sapiens, UniProt Q14680). In kind it is functional.
For a further assay, the system named is HEK293. The experiment in a line: Fluorescence-based counterscreen for potentiators or agonists of NPY-Y1: cell-based high-throughput dose response assay for inhibitors of cyclic nucleotide gated ion channel (CNGC) activity. In this assay, the parental HEK293 cell line transfected with a cyclic-nucleotide gated ion channel (CNGC)-based cAMP sensor is used to measure inhibition of isoproterenol-induced CNGC …. In kind it is functional. Conditions: Homo sapiens. (In general: A counterscreen serves to expose hits that act by an unwanted route or on another target.)

A further assay concerns the target Genome polyprotein (dengue virus type 2, UniProt P29990). The experiment in a line: flavivirus cap methylation enzyme inhibition – biochemical, confirmation dose response, primary screen (AID 588689). In kind it is functional.
Another assay addresses Nonstructural protein 1 (Influenza A virus, UniProt Q194T2). In kind it is functional, Influenza A virus (A/California/07/2009(H1N1)).
The target of assay [34] is T1, Neuropeptide Y receptor type 1 (Homo sapiens, UniProt P25929).
T1 sequence (P25929 whole entry): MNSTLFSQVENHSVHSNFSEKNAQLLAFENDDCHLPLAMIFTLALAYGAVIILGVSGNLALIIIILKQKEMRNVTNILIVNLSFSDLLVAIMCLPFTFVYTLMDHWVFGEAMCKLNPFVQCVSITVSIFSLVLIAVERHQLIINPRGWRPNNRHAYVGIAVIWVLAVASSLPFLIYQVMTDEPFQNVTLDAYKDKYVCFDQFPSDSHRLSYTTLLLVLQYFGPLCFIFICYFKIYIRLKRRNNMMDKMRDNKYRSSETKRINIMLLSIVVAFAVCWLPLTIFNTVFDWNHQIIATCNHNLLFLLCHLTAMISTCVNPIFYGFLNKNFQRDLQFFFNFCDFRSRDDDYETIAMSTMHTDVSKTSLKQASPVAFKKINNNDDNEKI
The experiment in a line: Fluorescence-based dose response cell-based high-throughput screening assay for agonists of NPY-Y1. [Related pubchem assays: 1697 (Screening assay (NPY-Y1 agonists).), 1359 (Screening assay (NPY-Y2 potentiators or agonists).), 1304 (Screening assay (NPY-Y1 potentiators or agonists).), 1704 (Screening assay (CNGC inhibitors).), 1791 (Summary AID.)]. In kind it is functional.

Tyrosine-protein kinase Fyn, sequence (P06241 whole entry): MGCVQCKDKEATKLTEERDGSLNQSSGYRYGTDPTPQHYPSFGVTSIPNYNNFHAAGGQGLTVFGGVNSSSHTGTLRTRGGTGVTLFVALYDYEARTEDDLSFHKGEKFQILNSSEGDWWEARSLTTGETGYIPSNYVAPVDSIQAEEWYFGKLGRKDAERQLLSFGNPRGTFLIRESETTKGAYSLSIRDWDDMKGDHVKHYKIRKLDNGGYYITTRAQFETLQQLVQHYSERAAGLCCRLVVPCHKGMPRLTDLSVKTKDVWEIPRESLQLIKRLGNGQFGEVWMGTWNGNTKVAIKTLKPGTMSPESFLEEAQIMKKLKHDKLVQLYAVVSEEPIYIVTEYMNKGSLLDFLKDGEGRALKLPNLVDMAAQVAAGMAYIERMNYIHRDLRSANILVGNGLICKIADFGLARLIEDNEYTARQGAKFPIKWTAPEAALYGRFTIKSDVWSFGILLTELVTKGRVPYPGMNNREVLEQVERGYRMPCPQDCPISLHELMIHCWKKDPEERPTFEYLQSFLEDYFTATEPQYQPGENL
Tyrosine-protein kinase ITK/TSK, sequence (Q08881 whole entry): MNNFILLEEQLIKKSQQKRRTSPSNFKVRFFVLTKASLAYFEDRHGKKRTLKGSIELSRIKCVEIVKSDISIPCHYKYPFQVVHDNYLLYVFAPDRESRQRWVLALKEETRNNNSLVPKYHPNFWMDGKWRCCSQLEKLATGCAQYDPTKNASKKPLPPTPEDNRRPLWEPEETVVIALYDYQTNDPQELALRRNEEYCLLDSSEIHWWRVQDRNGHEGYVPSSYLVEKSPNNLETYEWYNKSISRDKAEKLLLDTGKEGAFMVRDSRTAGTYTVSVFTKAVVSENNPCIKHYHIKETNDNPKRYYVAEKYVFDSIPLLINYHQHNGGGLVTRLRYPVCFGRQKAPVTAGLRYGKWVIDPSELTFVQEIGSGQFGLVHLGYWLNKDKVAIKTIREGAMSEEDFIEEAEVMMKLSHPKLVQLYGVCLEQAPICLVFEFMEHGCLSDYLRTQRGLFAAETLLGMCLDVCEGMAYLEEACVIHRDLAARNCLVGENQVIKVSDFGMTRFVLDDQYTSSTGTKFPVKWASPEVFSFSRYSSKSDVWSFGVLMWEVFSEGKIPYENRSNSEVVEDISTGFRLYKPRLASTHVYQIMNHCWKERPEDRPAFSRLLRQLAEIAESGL
Nonstructural protein 1, sequence (Q194T2 whole entry): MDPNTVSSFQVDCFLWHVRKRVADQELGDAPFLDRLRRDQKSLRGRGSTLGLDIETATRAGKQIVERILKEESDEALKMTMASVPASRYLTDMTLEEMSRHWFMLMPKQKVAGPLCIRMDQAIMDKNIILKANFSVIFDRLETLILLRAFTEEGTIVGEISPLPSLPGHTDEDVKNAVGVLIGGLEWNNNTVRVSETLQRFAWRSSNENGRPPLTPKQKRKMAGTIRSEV

`OC1CCC(Nc2cc(Cl)nc(-c3c[nH]c4ncccc34)n2)CC1` (centres undefined): the Ki in [1] is 251 nM (active); in assay [2] it was 1000 nM (active); in [3], 316 nM (active); in [4], > 2000 nM (inactive); in assay [5] it was > 1580 nM (inactive); in assay [6], 316 nM (active). For the same molecule, the Ki in assay [7] was 794 nM (active); in [8], 50.1 nM (active); in [9] it was 31.6 nM (active); in [10], 1 nM (active); in assay [11], > 794 nM (inactive); in [12] it was > 6310 nM (inactive). The Ki in assay [13] is 158 nM (active); in assay [14] it was > 1580 nM (inactive); in [15] it was 200 nM (active); in [16] it was 12.6 nM (active); in assay [17], > 3160 nM (inactive); in [18], > 5010 nM (inactive). The Ki in assay [19] is 126 nM (active); at Insulin receptor, > 3980 nM (inactive); in assay [20], > 2510 nM (inactive); in [21], 1260 nM (active); in [22] it was 1000 nM (active); in assay [23], 63.1 nM (active). Further, the Ki in assay [24] was 200 nM (active); in assay [25], 79.4 nM (active); on Activated CDC42 kinase 1, > 3980 nM (inactive); in [26], > 794 nM (inactive); in assay [27] it was 398 nM (active); in assay [28] it was 251 nM (active). The Ki in assay [29] is 20 nM (active); in assay [30] it was 31.6 nM (active); in [31], > 3160 nM (inactive); in assay [32], > 2510 nM (inactive); in assay [33], 200 nM (active).
Take `COCC/N=c1\scc(-c2cccs2)n1/N=C/c1ccc(O)c(O)c1O`: the IC50 in the assay on HEK293 was > 11800 nM (not active); at Genome polyprotein, > 100000 nM (active); at Nonstructural protein 1, 42900 nM (active). Further, the concentration for a half-maximal effect (EC50) in [34] was > 11800 nM (not active).
